Consider five molecules from ChEMBL document CHEMBL5724914, “Linking interpersonal differences in gut microbiota composition and drug biotransformation activity” (2024).

Data set [1] is described as follows: The drug is tested on WLS-170 corresponding to human gut metagenome with ENA study accession number: PRJEB37062 and ENA sample accession number: ERS12561762 for biotransformation under anaerobic condition. The drug concentrations were measured over 9 timepoints collected between 0 and 24 hours of incubation by liquid-chromatography-coupled mass spectrometry (LC–MS). The note with it: 2 µM.

The nature of data set [2]: The drug is tested on Z-021 corresponding to metagenome with ENA study accession number: PRJEB37062 and ENA sample accession number: ERS12561820 for biotransformation under anaerobic condition. The drug concentrations were measured over 9 timepoints collected between 0 and 24 hours of incubation by liquid-chromatography-coupled mass spectrometry (LC–MS). The note with it: 2 µM.

A short description of data set [3]: The drug is tested on Z-029 corresponding to rat gut metagenome with ENA study accession number: PRJEB37062 and ENA sample accession number: ERS12561828 for biotransformation under anaerobic condition. The drug concentrations were measured over 9 timepoints collected between 0 and 24 hours of incubation by liquid-chromatography-coupled mass spectrometry (LC–MS). The note with it: 2 µM.

The conditions of data set [4]: human gut metagenome, 24 h, 2 µM.
A short description of data set [5]: The drug is tested on WLS-007 corresponding to human gut metagenome with ENA study accession number: PRJEB37062 and ENA sample accession number: ERS12561742 for biotransformation under anaerobic condition. The drug concentrations were measured over 9 timepoints collected between 0 and 24 hours of incubation by liquid-chromatography-coupled mass spectrometry (LC–MS). The note with it: 2 µM.

Data set [6] can be described thus: The drug is tested on Z-020 corresponding to rabbit gut metagenome with ENA study accession number: PRJEB37062 and ENA sample accession number: ERS12561819 for biotransformation under anaerobic condition. The drug concentrations were measured over 9 timepoints collected between 0 and 24 hours of incubation by liquid-chromatography-coupled mass spectrometry (LC–MS). The note with it: 2 µM.

For data set [7] the following is noted: human gut metagenome, 24 h, 2 µM. The source holds these as a separate data set.
The conditions of data set [8]: human gut metagenome, 24 h, 2 µM. This is another data set of the same source.
Data set [9] in a line: The drug is tested on Z-004 corresponding to metagenome with ENA study accession number: PRJEB37062 and ENA sample accession number: ERS12561804 for biotransformation under anaerobic condition. The drug concentrations were measured over 9 timepoints collected between 0 and 24 hours of incubation by liquid-chromatography-coupled mass spectrometry (LC–MS). The note with it: 2 µM.

A short description of data set [10]: The drug is tested on Z-024 corresponding to pig gut metagenome with ENA study accession number: PRJEB37062 and ENA sample accession number: ERS12561823 for biotransformation under anaerobic condition. The drug concentrations were measured over 9 timepoints collected between 0 and 24 hours of incubation by liquid-chromatography-coupled mass spectrometry (LC–MS). The note with it: 2 µM.

Data set [11] in a line: The drug is tested on WLS-039 corresponding to human gut metagenome with ENA study accession number: PRJEB37062 and ENA sample accession number: ERS12561746 for biotransformation under anaerobic condition. The drug concentrations were measured over 9 timepoints collected between 0 and 24 hours of incubation by liquid-chromatography-coupled mass spectrometry (LC–MS). The note with it: 2 µM.

For data set [12] the following is noted: human gut metagenome, 24 h, 2 µM. The source holds these as a separate data set.
A short description of data set [13]: The drug is tested on Z-011 corresponding to mouse gut metagenome with ENA study accession number: PRJEB37062 and ENA sample accession number: ERS12561811 for biotransformation under anaerobic condition. The drug concentrations were measured over 9 timepoints collected between 0 and 24 hours of incubation by liquid-chromatography-coupled mass spectrometry (LC–MS). The note with it: 2 µM.

Data set [14] is described as follows: The drug is tested on Z-006 corresponding to mouse gut metagenome with ENA study accession number: PRJEB37062 and ENA sample accession number: ERS12561806 for biotransformation under anaerobic condition. The drug concentrations were measured over 9 timepoints collected between 0 and 24 hours of incubation by liquid-chromatography-coupled mass spectrometry (LC–MS). The note with it: 2 µM.

A short description of data set [15]: The drug is tested on WLS-069 corresponding to human gut metagenome with ENA study accession number: PRJEB37062 and ENA sample accession number: ERS12561748 for biotransformation under anaerobic condition. The drug concentrations were measured over 9 timepoints collected between 0 and 24 hours of incubation by liquid-chromatography-coupled mass spectrometry (LC–MS). The note with it: 2 µM.

Data set [16] in a line: The drug is tested on Z-001 corresponding to mouse gut metagenome with ENA study accession number: PRJEB37062 and ENA sample accession number: ERS12561801 for biotransformation under anaerobic condition. The drug concentrations were measured over 9 timepoints collected between 0 and 24 hours of incubation by liquid-chromatography-coupled mass spectrometry (LC–MS). The note with it: 2 µM.

For data set [17] the following is noted: human gut metagenome, 24 h, 2 µM. This is another data set of the same source.
The conditions of data set [18]: human gut metagenome, 24 h, 2 µM. The source holds these as a separate data set.
Data set [19] in a line: The drug is tested on WLS-240 corresponding to human gut metagenome with ENA study accession number: PRJEB37062 and ENA sample accession number: ERS12561773 for biotransformation under anaerobic condition. The drug concentrations were measured over 9 timepoints collected between 0 and 24 hours of incubation by liquid-chromatography-coupled mass spectrometry (LC–MS). The note with it: 2 µM.

The conditions of data set [20]: human gut metagenome, 24 h, 2 µM. The source holds these as a separate data set.
Note: call rule not given here.

For the molecule `C#C[C@]1(OC(C)=O)CC[C@H]2[C@@H]3CCC4=C/C(=N/O)CC[C@@H]4[C@H]3CC[C@@]21CC` [NORGESTIMATE], the “Bacterial Biotransformation” value in data set [1] is “Compound metabolized”; in [2], “Compound NOT metabolized”; in data set [3] it was “Compound metabolized”; in data set [4], “Compound metabolized”; in data set [5], “Compound metabolized”; in [6], “Compound NOT metabolized”. The “Bacterial Biotransformation” value in data set [7] was “Compound metabolized”; in data set [8] it was “Compound metabolized”; in [9], “Compound NOT metabolized”; in [10], “Compound NOT metabolized”; in [11] it was “Compound metabolized”; in [12], “Compound metabolized”. Also, the “Bacterial Biotransformation” value is recorded as “Compound NOT metabolized” in [13]; “Compound NOT metabolized” in data set [14]; “Compound metabolized” in data set [15]; “Compound NOT metabolized” in data set [16]; “Compound NOT metabolized” in data set [17]; “Compound metabolized” in data set [18]. The “Bacterial Biotransformation” value in data set [19] and in data set [20] was “Compound metabolized” in each case.
Turning to `COc1ccnc(C[S+]([O-])c2nc3ccc(OC(F)F)cc3[nH]2)c1OC` (stereo not given) [PANTOPRAZOLE], the “Bacterial Biotransformation” value in [1], in data set [2], in [3], in data set [4], in data set [5] and in [6] was “Compound metabolized” each time. Further, the “Bacterial Biotransformation” value in data set [7] was “Compound metabolized”; in [8], “Compound NOT metabolized”; in [9], “Compound metabolized”; in data set [10], “Compound metabolized”; in data set [11], “Compound metabolized”; in data set [12] it was “Compound metabolized”. Further, the “Bacterial Biotransformation” value is reported as “Compound metabolized” in data set [13]; “Compound metabolized” in data set [14]; “Compound metabolized” in data set [15]; “Compound NOT metabolized” in data set [16]; “Compound metabolized” in data set [17]; “Compound metabolized” in [18]. The “Bacterial Biotransformation” value in data set [19] and in data set [20] was “Compound metabolized” each time.
Turning to `C[C@]12C=CC(=O)C=C1CC[C@@H]1[C@@H]2C(=O)C[C@@]2(C)[C@H]1CC[C@]2(O)C(=O)CO` [PREDNISONE], the “Bacterial Biotransformation” value in [1], in data set [2], in [3], in data set [4], in data set [5] and in data set [6] was “Compound metabolized” in each case. The “Bacterial Biotransformation” value in [7] is listed as “Compound metabolized”; in data set [8], “Compound NOT metabolized”; in data set [9], “Compound metabolized”; in [10], “Compound metabolized”; in [11], “Compound metabolized”; in data set [12] it was “Compound metabolized”. Further, the “Bacterial Biotransformation” value in data set [13] is “Compound NOT metabolized”; in [14] it was “Compound metabolized”; in data set [15], “Compound metabolized”; in [16] it was “Compound metabolized”; in [17] it was “Compound NOT metabolized”; in [18] it was “Compound NOT metabolized”. The “Bacterial Biotransformation” value in data set [19] was “Compound metabolized”; in data set [20], “Compound NOT metabolized”.
Take `CN(CCOc1ccc(CC2SC(=O)NC2=O)cc1)c1ccccn1.O=C(O)/C=C\C(=O)O` (stereo not given) [ROSIGLITAZONE MALEATE]: the “Bacterial Biotransformation” value in [1] is “Compound metabolized”; in data set [2], “Compound NOT metabolized”; in [3], “Compound NOT metabolized”; in data set [4], “Compound metabolized”; in [5] it was “Compound metabolized”; in data set [6] it was “Compound NOT metabolized”. Besides, the “Bacterial Biotransformation” value in [7], in [8], in [9], in [10], in data set [11] and in data set [12] was “Compound NOT metabolized” throughout. For the same molecule, the “Bacterial Biotransformation” value is “Compound NOT metabolized” in data set [13]; “Compound NOT metabolized” in [14]; “Compound metabolized” in [15]; “Compound NOT metabolized” in [16]; “Compound NOT metabolized” in data set [17]; “Compound NOT metabolized” in [18]. Further, the “Bacterial Biotransformation” value in data set [19] was “Compound metabolized”; in data set [20] it was “Compound NOT metabolized”.
For the molecule `CC(C)c1nc(N(C)S(C)(=O)=O)nc(-c2ccc(F)cc2)c1/C=C/[C@@H](O)C[C@@H](O)CC(=O)[O-].CC(C)c1nc(N(C)S(C)(=O)=O)nc(-c2ccc(F)cc2)c1/C=C/[C@@H](O)C[C@@H](O)CC(=O)[O-].[Ca+2]` [ROSUVASTATIN CALCIUM], the “Bacterial Biotransformation” value in [1] is listed as “Compound metabolized”; in data set [2], “Compound NOT metabolized”; in data set [3], “Compound NOT metabolized”; in [4], “Compound NOT metabolized”; in data set [5], “Compound metabolized”; in data set [6], “Compound NOT metabolized”. For the same molecule, the “Bacterial Biotransformation” value in data set [7] was “Compound metabolized”; in data set [8] it was “Compound metabolized”; in data set [9] it was “Compound NOT metabolized”; in [10], “Compound NOT metabolized”; in [11] it was “Compound metabolized”; in data set [12] it was “Compound metabolized”. For the same molecule, the “Bacterial Biotransformation” value in data set [13] was “Compound NOT metabolized”; in data set [14], “Compound NOT metabolized”; in data set [15], “Compound metabolized”; in [16], “Compound NOT metabolized”; in data set [17], “Compound NOT metabolized”; in data set [18], “Compound metabolized”. For the same molecule, the “Bacterial Biotransformation” value in data set [19] was “Compound metabolized”; in data set [20], “Compound NOT metabolized”.
